From patent US7408022B2, “Composition and method for increasing apoptosis in cancer cells” (Celtek Bioscience, LLC, priority 2004, dated 2008)
Peptide text beside a SMILES is read from it.

Experiments:
[1] = Quantitative indirect immunofluorescence assay of peptide cellular import (96-well plates); assay type: cell-based; conditions: from time-dependent fluorescence accumulation, 1-20 h
Excerpt: This indirect immunofluoresence assay was also utilized to quantitate peptide cellular import. Briefly, cells grown in 96-well plates will be treated with peptides for different time periods, and then subjected to an indirect immunofluorescence assay using anti-peptide antibody and FITC-labeled anti-rabbit antibody as described above. Cells were then lysed with 10% SDS and the fluorescence in the soluble cell solutions was quantified by a Cytofluor™ 2300 reader (Millipore) at 485/560 nm. The fluorescence readings were calculated by subtracting […] of peptide-untreated sample. The data were expressed as mean ±SEM of three independent experiments performed in quintuplicate samples. The kinetics of imported CB5005 peptide (SEQ ID NO: 4) was studied by using this quantitative.

[2] = tested on: neuroblastoma N2a cells; assay: In vitro cytotoxicity assay (MTS); assay type: cell-based; conditions: 24 h at 37° C.
Protocol: (§1) LNCaP, DU145, PC3, or neuroblastoma N2a cells were grown in 96-well plates to a confluence of 60%. The treatments with different concentrations of peptide were performs in quadruplicates in a total volume of 100 μl in RPMI without serum for 24 h at 37° C. The cells were then washed and incubated at 37° C. with 100 μl phenol-red free RPMI containing 20 μl of the CellTiter 96 AQueous Solution reagent (Promega, Madison, Wis.) for 1 h. The absorbency in each well was recorded at 490 nm using a Microplate Autoreader EL 309 (Bio-Tek Instruments, Winooski, Vt.). The absorbency reflects directly the number of viable cells. Blanks were subtracted from all data. The data were then analyzed using Prism software (GraphPad Software Inc., San Diego, Calif.) and expressed as a mean ±SE of three independent experiments. Statistical significance was performed by one way ANOVA and consider significant if p<0.05.

[3] = tested on: DU145 cells; assay: In vitro cytotoxicity assay (MTS); assay type: cell-based, Human; conditions: DU145, 30 μM, 24 h
Protocol: as §1

[4] = tested on: LNCaP cells; assay: In vitro cytotoxicity assay (MTS); assay type: cell-based, Human; conditions: 24 h at 37° C.
Protocol: as §1

[5] = tested on: PC3 cells; assay: In vitro cytotoxicity assay (MTS); assay type: cell-based, Human; conditions: PC3, 30 μM, 24 h
Protocol: as §1

[6] = tested on: DU145 cells; assay: Flow cytometric analysis of annexin V/PI stained cells; assay type: cell-based, Human; conditions: for induction of apoptosis by co-treatment with cisplatin (flow cytometry): CB5005 30 μM, CB5003 72 μM, CB5002 72 μM, cisplatin 5 μg/ml
Protocol: PCA cells were grown on 60-mm dishes to a confluence of 50-60%. These cells were incubated with different concentrations of peptides for 30 min at 37° C. followed by the treatment with TNF-α (10 ng/ml), cisplatin (2-30 μg/ml), etoposide (2-20 μg/ml) or diluent for an additional 21 h at 37° C. Phosphatidylserine exposure on apoptotic cells was measured by their ability to bind Annexin V. Specifically, cells were harvested by trypsinization. The trypsinized cells, media and PBS washes were combined and cells collected by centrifugation. […] Stained cells were analyzed by flow cytometry. A minimum 20,000 events for each sample was measured.

[7] = tested on: DU145 cells; assay: Annexin V/PI fluorescence microscopy apoptosis assay; assay type: cell-based, Human; conditions: cisplatin 5 μg/ml alone, 5 h
Protocol: DU145 cells were grown on 4-well chamber slides to a confluence of 70-80%. Cells were then treated with CB5005 peptide (SEQ ID NO: 4) (30 μM) or diluent for 30 min at 37° C. followed by cisplatin (5 μg/ml) for an additional 5 h. […] The chamber slides were mounted in Poly/mount (Polysciences, Warrington, Pa.) and analyzed with a fluorescence microscope (Microstar IV, Reichard, Buffalo, N.Y.) using ×100 oil immersion lens. The color images were analyzed by a Pixera digital camera and stored in JPG format.

[8] = tested on: DU145 cells; assay: TUNEL assay; assay type: cell-based, Human; conditions: peptide 30 min, then cisplatin 5 μg/ml 16 h; CB5003 40 μM, CB5002 72 μM, CB5007 30 μM
Protocol: DU145 cells were grown on 8-well chamber slides to a confluence of 70-80%. The cells were then incubated with different concentrations of peptides or diluent for 30 min at 37° C. followed by the treatment with cisplatin (5 μg/ml) or diluent for an additional 16 h. The cells were air-dried and fixed in 4% paraformaldehyde at room temperature for 1 h. The cells were then washed with PBS and permeabilized with permeabilization solution (0.1% Triton X-100 in 0.1% sodium citrate) for 2 min on ice. Apoptosis was detected using TUNEL method “in situ cell death detection POD” according to the manufacturer's instructions (Roche, Indianapolis, Ind.). The fluorescein-labeled DNA strand breaks due to apoptosis were visualized under light microscope (Microstar IV, Reichard, Buffalo, N.Y.) by using anti-fluorescein antibody conjugated POD (peroxidase) at ×40 magnification. The images were analyzed using a Pixera digital camera.

[9] = tested on: DU145 cells; assay: Indirect immunofluorescence assay for peptide cellular import; assay type: cell-based, Human; conditions: different concentrations of peptides, 1 h at 37° C.
Protocol: DU145 cells were grown on 8-well chamber slides (Nunc, Naperville, Ill.) to a confluence of 80%. These cells were then incubated with diluent or different concentrations of peptides in RPMI without serum for 1 h at 37° C. The cells were washed three times with cold PBS to remove the extracellular peptides and then fixed with 3.5% paraformaldehyde solution in PBS at 4° C. for 20 min. The fixed cells were washed three times with cold PBS and treated with 0.25% Triton X-100 for 10 min. The washed cells were then incubated with anti-peptide IgG in PBS for 1 h. After three 5 min washings with PBS, the intracellular peptides (via peptide-antibody complexes) were subsequently detected with FITC-labeled goat anti-rabbit IgG (Pierce, Rockford, Ill.) after 1 h incubation. Cover slips with stained cells were mounted in Poly/Mount (Polysciences, Warrington, Pa.) and analyzed with Microstar IV (Reichard, Buffalo, N.Y.) using a 100× oil immersion lens. The color images were analyzed using a Pixera digital camera and stored in JPG format. The same assay was also utilized for determining peptide cellular import in other cell lines, including PC3, LNCaP, and neuroblastoma N2a cells.

[10] = tested on: NF-κB nuclear translocation in DU145 cells; assay: Western blot analysis of NF-κB p50 protein in nuclear extracts; assay type: cell-based, Human; conditions: CB5005 30 μM, CB5003 90 μM, CB5007 30 μM for 30 min, then TNF-α 10 ng/ml 1 h
Protocol: (§2) PCA cells were grown on 60-mm dishes to a confluence of 70-80%. The cells were incubated with different concentrations of peptides for 30 min at 37° C., followed by treatment with TNF-α (10 ng/ml) for an additional 1 h at 37° C., as indicated, or incubated with peptide alone for 16 hours. After the treatment, cells were washed with ice-cold PBS and lysed in 500 μl of buffer A (10 mM HEPES, pH 7.9, 10 mM KCl, 0.1 mM EDTA, 0.1 mM EGTA, 0.4% Nonidet P-40, 1 mM DTT, 0.5 mM PMSF and 1 μg/ml each of leupeptin, aprotinin, pepstatin, chymostatin and antipain) on ice for 10 min. Nuclei were pelleted by centrifugation at high speed and washed with 500 μl of buffer A. Nuclei were then resuspended in 40 μl of buffer B (20 mM HEPES, pH 7.9, 400 mM NaCl, 1 mM EDTA, 1 mM EGTA, 1 mM DTT, 1 mM PMSF and 1 μg/ml each of leupeptin, aprotinin, pepstatin, chymostatin and antipain). The protein concentration of nuclear extract was determined using Pierce BCA protein assay and equalized among samples using buffer B.
(§3) Equal amounts of proteins were heat-treated in 2×SDS sample loading buffer at 100° C. for 5 minutes and fractionated by 10% SDS polyacrylamide electrophoresis. The proteins were transferred to nitrocellulose paper. After blocking with 5% nonfat milk in TBS (10 mM Tris-HCl, pH 7.6, 70 mM NaCl and 0.05% Tween 20) for 30 minutes, nuclear NFκB p50 was detected by using an anti-p50 IgG antibody (1:5000), (Upstate, Lake Placid, N.Y.). The primary antibody was visualized with horseradish peroxidase-coupled secondary antibody by using ECL western blotting system as described in manufacturer's protocol (Pierce, Rockford, Ill.).

[11] = tested on: NF-κB nuclear translocation in LNCaP cells; assay: as above; assay type: cell-based, Human; conditions: peptide 30 min, then TNF-α 10 ng/ml 1 h
Protocol: as §2, §3

Row | Compound | induction of apoptosis by co-treatment with cisplatin (flow cytometry) ([6]; 21 h) | sensitizing activity to cisplatin-induced apoptosis (TUNEL) [8] | cellular import activity [9] | TNF-α-induced NF-κB nuclear translocation [10] | TNF-α-induced NF-κB nuclear translocation [11] | further results
1 | CSCC[C@H](NC(=O)[C@H](CC(C)C)NC(=O)[C@H](CCCCN)NC(=O)[C@H](CCC(N)=O)NC(=O)[C@H](CCCNC(=N)N)NC(=O)[C@H](CCCCN)NC(=O)[C@H](CCCNC(=N)N)NC(=O)[C@H](CCC(N)=O)NC(=O)[C@@H](NC(=O)[C@H](C)NC(=O)[C@H](CC(C)C)NC(=O)[C@H](C)NC(=O)[C@H](CC(C)C)NC(=O)[C@H](C)NC(=O)[C@H](CC(C)C)NC(=O)[C@H](C)NC(=O)[C@H](CC(C)C)NC(=O)[C@H](CCCCN)NC(=O)[C@H](CC(C)C)NC(=O)[C@@H](N)CCCCN)C(C)C)C(=O)N1CCC[C@H]1C(=O)O [CB5005] (H-KLKLALALALAVQRKRQKLMP-OH; N-terminus and C-terminus assumed) |  |  |  |  |  | stability in intracellular compartments [1]: relatively stability; cytotoxicity (MTS) [2]: did not result in toxicity; cytotoxicity (MTS), peptide-untreated vs treated samples [3]: Statistical significance (p<0.05); cytotoxicity (MTS) [4]: not toxic; cytotoxicity (MTS), peptide-untreated vs treated samples [5]: Statistical significance (p<0.05)
2 | N.N.[Cl][Pt][Cl] [cisplatin, reference compound] |  |  |  |  |  | induction of apoptosis (flow cytometry) ([6]; cisplatin 5 μg/ml alone, 21 h): ineffective; induction of apoptosis (annexin V-FITC staining) [7]: ineffective
3 | CB5002: control peptide with a mutant, non-functional CPS located N-terminal to the NLS (LALLAPVQRKRQKLMP) | did not show significant effect | not | not active |  |  | 
4 | CB5003: analogous peptide possessing only a portion of the CPS (SEQ ID NO: 1) N-terminal to the NF-κB p50 NLS (LALALAVQRKRQKLMP) | active but to a much less extent | active, although at a much lower level | much weaker import activity | inhibited | inhibited | synergistic activity in enhancing the apoptosis induced by cisplatin (dependence on concentration) ([6]; DU145, flow cytometry): concentration-dependent
5 | CB5007: control peptide corresponding to CB5005 except that two basic residues in the NF-kB p50 NLS are mutated (KR-NG) (KLKLALALALAVQRNGQKLMP) |  | not |  | did not have an inhibitory effect | did not have an inhibitory effect | 
